Reference: patent US8772329B2, “Compounds from mycelium of Antrodia cinnamomea and use thereof” (Simpson Biotech Co., Ltd., priority 2008, dated 2014)

Key:
HCV NS3/4A protease = target: T1, HCV NS3/4A protease (Hepatitis C virus genotype 1b, UniProt O92972); assay: HCV protease inhibition assay (SensoLyte 520 HCV Protease Assay Kit, FRET peptide substrate); type: biochemical; conditions: for IC50: enzyme 0.5 μg/ml, 30 min at room temperature (28° C.), read-out: IC50 against HCV protease (converted)
T1 construct: HCV NS3/4A protease; purchased AnaSpec, San Jose, Calif., USA lot# Lot 046-047 (screening); lot# Lot 046-079 (mechanism study); catalogue number not given
From the text: Since the mycelium of Antrodia cinnamomea was recently reported to be clinically effective for hepatitis patients infected with HCV (Akiba T et al. 2007. Clinical study of Shoshi on Japanese hepatitis patients infected with C type hepatitis virus. The second Taiwan and Japan Symposium on Antrodia cinnamomea, Abst. pp. 82-98), a SensoLyte™ 520 HCV protease assay kit was applied to investigate the HCV-protease inhibitory activity of the isolated antrodins, the metabolites of antrodin C as well as one metabolite analogue. The assay method with a quenched-fluorogenic peptide substrate can be used for measure the activity of inhibitors as well as for continuous recording of the progress of the enzyme reaction.
The mode of inhibition was kinetically analyzed by plotting the enzyme activity at different concentrations of the substrate (10, 50, 100 and 200 times dilution of the substrate stocking solution) with (5 μg/ml, and 10 μg/ml) and without [0 μg/ml (DMSO)] compound 1.
HCV NS3/4A protease (lot# Lot 046-047 for the screening and lot# Lot 046-079 for the mechanism study) and SensoLyte™ 520 HCV Protease Assay Kit *Fluorimetric* (lot# AK 71147-1005) were purchased from AnaSpec, San Jose, Calif., USA. The substrate was a 5-FAM/QXL™520 FRET peptide based on the sequence of Ac-Asp-Glu-Asp(EDANS)-Glu-Glu-Abu-Ψ-[COO]Ala-Ser-Lys(DABCYL)-NH2. The assay was carried out on BD Falcon™ Microtest™384-well 120 μl black assay plates (lot#05391155). Fluorescence was measured by TECAN GENios plate reader at excitation/emission 485/530 nm Chemical compounds. Antrodins A-E (compounds 1-5) were isolated from the mycelium of Antrodia cinnamomea as reported (Nakamura et al., 2004. Five new maleic and succinic acid derivatives from the mycelium of Antrodia comphorata and their cytotoxic effects on LLC tumor cell line. J Nat Prod 67: 46-48). Embelin used as a positive control was isolated in our laboratory in previous work (Hussein et al., 2000, Inhibitory effects of Sudanese medicinal plant extracts on hepatitis C virus (HCV) Protease. Phytother Res 14: 510-516). Compounds 6, 7a and 7b were detected as the metabolites of antrodin C in vivo. Compounds 7a and 7b were un-separable due to the equilibrium of these two compounds through compound 1. It was thus used for the assay as a mixture of compounds 1, 7a and 7b and named 7. Compound 8 was an analogue of another metabolite whose glycine group was supposed to connect to the other carboxyl group in the structure.
Compound 6 was dissolved in H2O and other compounds were dissolved in DMSO for the assay. To each well were added 2 μl of respective compound solution and 8 μl of freshly diluted enzyme (0.5 μg/ml). The reaction was started by adding 10 μl of freshly diluted substrate (100 times dilution of a DMSO stocking solution). After being incubated at room temperature (28° C.) for 30 min, the fluorescence intensities were measured at Ex/Em=485 nm/535 nm. Inhibition percentages were calculated as 100×(Fvehicle−Fsample)/Fvehicle=% inhibition, where F is the fluorescence value of vehicle control or of compound minus the fluorescence of the substrate control.

[1] = tested on: Propionicbacterium acnes and lipopolysaccharide treated mice; conditions: cited from earlier work
[2] = cited from earlier work

T1 sequence (O92972 1013-1207, looked up, natural form): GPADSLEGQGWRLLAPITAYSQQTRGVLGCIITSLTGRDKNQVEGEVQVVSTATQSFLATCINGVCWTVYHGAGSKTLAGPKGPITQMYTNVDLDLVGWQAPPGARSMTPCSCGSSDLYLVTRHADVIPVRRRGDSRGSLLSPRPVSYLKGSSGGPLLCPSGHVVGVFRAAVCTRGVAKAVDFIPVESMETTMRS

| SMILES | IC50 (HCV NS3/4A protease) [µM] | further results |
| --- | --- | --- |
| CC(C)=CCOc1ccc(C2C(=O)N(O)C(=O)C2CC(C)C)cc1 (centres unmarked) [Compound 5, 3R*,4R*-1-hydroxy-3-isobutyl-4-[4-(3-methyl-2-butenyloxy)phenyl]pyrrolidine-2,5-dione] | 60.6 |  |
| CC(C)=CCOc1ccc(C2C(=O)N(O)C(=O)C2CC(C)C)cc1 (centres unmarked) [Compound 4, 3R*,4S*-1-hydroxy-3-isobutyl-4-[4-(3-methyl-2-butenyloxy)phenyl]pyrrolidine-2,5-dione] | 60.3 |  |
| CC(C)=CCOc1ccc(/C(C(=O)NCC(=O)O)=C(\CC(C)C)C(=O)O)cc1 [Compound 8] | 148 |  |
| CC(C)=CCOc1ccc(/C(C(=O)O)=C(\CC(C)C)C(=O)O)cc1 [Compound 6, (2Z)-2-isobutyl-3-{4-[(3-methylbut-2-en-1-yl)oxy]phenyl}but-2-enedioic acid] | 19.9 |  |
| CC(C)=CCOc1ccc(C2=C(CC(C)C)C(=O)OC2=O)cc1 [Compound 1, 3-isobutyl-4-[4-(3-methyl-2-butenyloxy)phenyl]furan-2,5-dione] | 2.86 | mode of HCV PR inhibition (Lineweaver-Burk plot) (HCV NS3/4A protease; compound 1 at 0, 5 and 10 μg/ml, substrate 10, 50, 100 and 200 times dilution): competitive |
| CCCCCCCCCCCC1=C(O)C(=O)C=C(O)C1=O [Embelin, reference compound] | 13.9 |  |
| CC(C)=CCOc1ccc(C2=C(CC(C)C)C(=O)NC2=O)cc1 [Compound 2, 3-isobutyl-4-[4-(3-methyl-2-butenyloxy)phenyl]-1H-pyrrol-2,5-dione] | > 319 |  |
| CC(C)=CCOc1ccc(C2=C(CC(C)C)C(=O)N(O)C2=O)cc1 [Compound 3, 3-isobutyl-4-[4-(3-methyl-2-butenyloxy)phenyl]-1H-pyrrol-1-ol-2,5-dione] | 8.8 | protective activity [1]: showed protective activity; detection of parent compound in the body ([2]; after absorption): could not be detected in the body after absorption; absorption ([2]; gastrointestinal tract): quickly absorbed from the gastrointestinal tract; metabolization ([2]; liver): rapid and complete metabolization in liver; in vivo metabolism (metabolites formed) ([2]; metabolites: compounds 1, 2, 6, 7a, 7b and an analogue of compound 8): converted to six metabolites |
